# Patent publication US20250098679A1, “HERBICIDAL PYRIDONE DERIVATIVES” (SYNGENTA CROP PROTECTION AG, priority 2021, published 2025)
# Columns and labels:
# Format in all cases: in vivo
# [1] = tested on: Amaranthus palmeri (AMAPA); assay: Pre-emergence Test, Amaranthus palmeri (AMAPA); conditions: evaluated after 13 days
# [2] = tested on: Echinochloa crus-galli (ECHCG); assay: Pre-emergence Test, Echinochloa crus-galli (ECHCG); conditions: evaluated after 13 days
# Zea mays (ZEAMX) [3] = assay: Post-emergence Test, Zea mays (ZEAMX); set-up: key to percentage damage caused to the plant, ZEAMX (five-point scale): 5=81-100%, 4=61-80%, 3=41-60%, 2=21-40%, 1=0-20% damage; conditions: evaluated after 13 days
# In short: (§1)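 Percent plant damage was rated 13 days post-application on a 1–5 scale (1=0-20%, 5=81-100%). Application used an aqueous acetone (50:50)/0.5% Tween 20 spray, normally 1000 g/ha, with controlled glasshouse conditions (24/16 °C, 14 h light, 65% humidity).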
# [4] = tested on: Echinochloa crus-galli (ECHCG); assay: Post-emergence Test, Echinochloa crus-galli (ECHCG); set-up: key to percentage damage caused to the plant, ECHCG (five-point scale): 5=81-100%, 4=61-80%, 3=41-60%, 2=21-40%, 1=0-20% damage; conditions: evaluated after 13 days; for Post-emergence Test ECHCG, percentage damage caused to the plant (five-point scale): 250 g/Ha (*)
# In short: as §1
# [5] = tested on: Amaranthus retoflexus (AMARE); assay: Pre-emergence Test, Amaranthus retoflexus (AMARE); conditions: evaluated after 13 days
# [6] = tested on: Amaranthus palmeri (AMAPA); assay: Post-emergence Test, Amaranthus palmeri (AMAPA); set-up: key: 5=81-100%, 4=61-80%, 3=41-60%, 2=21-40%, 1=0-20% damage; conditions: evaluated after 13 days
# In short: as §1
# [7] = tested on: Ipomoea hederacea (IPOHE); assay: Pre-emergence Test, Ipomoea hederacea (IPOHE); conditions: evaluated after 13 days
# Zea mays (ZEAMX) [8] = assay: Pre-emergence Test, Zea mays (ZEAMX); conditions: evaluated after 13 days
# [9] = tested on: Ipomoea hederacea (IPOHE); assay: Post-emergence Test, Ipomoea hederacea (IPOHE); set-up: key to percentage damage caused to the plant, IPOHE (five-point scale): 5=81-100%, 4=61-80%, 3=41-60%, 2=21-40%, 1=0-20% damage; conditions: evaluated after 13 days
# In short: as §1
# [10] = tested on: Amaranthus retoflexus (AMARE); assay: Post-emergence Test, Amaranthus retoflexus (AMARE); set-up: key to percentage damage caused to the plant, AMARE (five-point scale): 5=81-100%, 4=61-80%, 3=41-60%, 2=21-40%, 1=0-20% damage; conditions: evaluated after 13 days
# In short: as §1
# Setaria faberi (SETFA) = assay: Post-emergence Test, Setaria faberi (SETFA); set-up: key to percentage damage caused to the plant, SETFA (five-point scale): 5=81-100%, 4=61-80%, 3=41-60%, 2=21-40%, 1=0-20% damage; conditions: 1000 g/ha, evaluated after 13 days
# In short: as §1
Structure (SMILES),"Pre-emergence Test AMAPA, percentage damage caused to the plant (five-point scale) ([1]; 250 g/Ha (*))","Pre-emergence Test AMAPA, percentage damage caused to the plant (five-point scale) ([1]; 1000 g/ha)","Pre-emergence Test ECHCG, percentage damage caused to the plant (five-point scale) ([2]; 250 g/Ha (*))","Pre-emergence Test ECHCG, percentage damage caused to the plant (five-point scale) ([2]; 1000 g/ha)","Post-emergence Test ZEAMX, percentage damage caused to the plant (five-point scale) (Zea mays (ZEAMX) [3]; 250 g/Ha (*))","Post-emergence Test ZEAMX, percentage damage caused to the plant (five-point scale) (Zea mays (ZEAMX) [3]; 1000 g/ha)","Post-emergence Test ECHCG, percentage damage caused to the plant (five-point scale) [4]","Pre-emergence Test AMARE, percentage damage caused to the plant (five-point scale) ([5]; 250 g/Ha (*))","Pre-emergence Test AMARE, percentage damage caused to the plant (five-point scale) ([5]; 1000 g/ha)","Post-emergence Test AMAPA, percentage damage caused to the plant (five-point scale) ([6]; 250 g/Ha (*))","Post-emergence Test AMAPA, percentage damage caused to the plant (five-point scale) ([6]; 1000 g/ha)","Pre-emergence Test IPOHE, percentage damage caused to the plant (five-point scale) ([7]; 250 g/Ha (*))","Pre-emergence Test IPOHE, percentage damage caused to the plant (five-point scale) ([7]; 1000 g/ha)","Pre-emergence Test ZEAMX, percentage damage caused to the plant (five-point scale) (Zea mays (ZEAMX) [8]; 250 g/Ha (*))","Pre-emergence Test ZEAMX, percentage damage caused to the plant (five-point scale) (Zea mays (ZEAMX) [8]; 1000 g/ha)","Post-emergence Test IPOHE, percentage damage caused to the plant (five-point scale) ([9]; 250 g/Ha (*))","Post-emergence Test IPOHE, percentage damage caused to the plant (five-point scale) ([9]; 1000 g/ha)","Post-emergence Test AMARE, percentage damage caused to the plant (five-point scale) ([10]; 250 g/Ha (*))","Post-emergence Test AMARE, percentage damage caused to the plant (five-point scale) ([10]; 1000 g/ha)","Post-emergence Test SETFA, percentage damage caused to the plant (five-point scale) (Setaria faberi (SETFA))",other results
"CCn1c(Cn2ccc(-c3cccs3)n2)cc(=O)c(C(=O)O)c1-c1ccc(Cl)c(Cl)c1 [Compound 194, 2-(3,4-dichlorophenyl)-1-ethyl-4-oxo-6-[[3-(2-thienyl)pyrazol-1-yl]methyl]pyridine-3-carboxylic acid]",0,0,1 (1=0-20%),2 (2=21-40%),1 (1=0-20%),1 (1=0-20%),2 (2=21-40%),0,0,0,1 (1=0-20%),1 (1=0-20%),2 (2=21-40%),0,1 (1=0-20%),1 (1=0-20%),2 (2=21-40%),0,2 (2=21-40%),3 (3=41-60%),–
"CCn1c(Cn2ccc([N+](=O)[O-])n2)cc(=O)c(C(=O)O)c1-c1ccc(Cl)c(Cl)c1 [Compound 178, 2-(3,4-dichlorophenyl)-1-ethyl-6-[(3-nitropyrazol-1-yl)methyl]-4-oxo-pyridine-3-carboxylic acid]",0,0,1 (1=0-20%),2 (2=21-40%),–,–,–,0,0,–,–,0,0,0,0,–,–,–,–,–,"percentage damage caused to the plant, ZEAMX (five-point scale) (Zea mays (ZEAMX) [3]; 250 g/Ha): 0; percentage damage caused to the plant, ZEAMX (five-point scale) (Zea mays (ZEAMX) [3]; 1000 g/ha): 0; percentage damage caused to the plant, ECHCG (five-point scale) ([4]; 250 g/Ha): 1 (1=0-20%); percentage damage caused to the plant, AMAPA (five-point scale) ([6]; 250 g/Ha): 1 (1=0-20%); percentage damage caused to the plant, AMAPA (five-point scale) ([6]; 1000 g/ha): 1 (1=0-20%); percentage damage caused to the plant, IPOHE (five-point scale) ([9]; 250 g/Ha): 1 (1=0-20%); percentage damage caused to the plant, IPOHE (five-point scale) ([9]; 1000 g/ha): 0; percentage damage caused to the plant, AMARE (five-point scale) ([10]; 250 g/Ha): 0; percentage damage caused to the plant, AMARE (five-point scale) ([10]; 1000 g/ha): 1 (1=0-20%); percentage damage caused to the plant, SETFA (five-point scale) (Setaria faberi (SETFA)): 2 (2=21-40%)"
"CCn1c(Cn2ccc(-c3nccs3)n2)cc(=O)c(C(=O)O)c1-c1ccc(Cl)c(Cl)c1 [Compound 201, 2-(3,4-dichlorophenyl)-1-ethyl-4-oxo-6-[(3-thiazol-2-ylpyrazol-1-yl)methyl]pyridine-3-carboxylic acid]",–,0,–,0,0,1 (1=0-20%),1 (1=0-20%),–,0,0,1 (1=0-20%),–,1 (1=0-20%),–,0,0,2 (2=21-40%),0,2 (2=21-40%),2 (2=21-40%),–
